Data from patent publication EP2064211B1, “IMIDAZO[1,2-A]PYRIDINE HYDROXYMATE COMPOUNDS THAT ARE INHIBITORS OF HISTONE DEACETYLASE” (MEI Pharma, Inc., priority 2006, dated 2008).

Tests used:
[1] = molecular target: T1, HDAC1 enzyme (Homo sapiens, UniProt Q13547); assay: In vitro HDAC assay for determination of IC50 values (BIOMOL fluorescent-based HDAC activity assay); type: biochemical; settings: recombinant GST-HDAC1, 500 uM Flur de lys substrate, room temperature 2 h; read-out: IC50 (HDAC 1)
T1 construct: Amplification of human HDAC1 coding region from this cDNA library was cloned separately into the baculovirus expression pDEST20 vector; made in house; host or cells: SF9 insect cells (baculovirus, pDEST20 vector)
T1 sequence (Q13547 whole entry): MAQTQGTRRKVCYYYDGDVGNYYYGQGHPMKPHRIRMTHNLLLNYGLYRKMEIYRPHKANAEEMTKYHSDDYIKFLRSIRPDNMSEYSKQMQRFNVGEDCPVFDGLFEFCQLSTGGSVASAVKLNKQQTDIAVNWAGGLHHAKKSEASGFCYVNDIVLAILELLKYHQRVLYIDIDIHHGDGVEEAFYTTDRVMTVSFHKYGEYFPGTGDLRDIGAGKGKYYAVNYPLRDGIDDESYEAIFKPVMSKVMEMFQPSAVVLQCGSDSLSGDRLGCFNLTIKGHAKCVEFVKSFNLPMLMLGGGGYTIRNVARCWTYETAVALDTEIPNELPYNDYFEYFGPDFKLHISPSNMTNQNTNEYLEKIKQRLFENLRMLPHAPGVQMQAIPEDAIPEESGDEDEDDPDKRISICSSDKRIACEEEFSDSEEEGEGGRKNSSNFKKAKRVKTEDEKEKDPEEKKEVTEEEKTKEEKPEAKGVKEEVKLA
Method: Human cDNA library was prepared using cultured SW620 cells. Amplification of human HDAC1 coding region from this cDNA library was cloned separately into the baculovirus expression pDEST20 vector (GATEWAY Cloning Technology, Invitrogen Pte Ltd). The pDEST20-HDAC1 construct was confirmed by DNA sequencing. Recombinant baculovirus was prepared using the Bac-To-Bac method following the manufacturer's instruction (Invitrogen Pte Ltd).
Expression of GST-HDAC1 was done by infecting SF9 cells (Invitrogen Pte Ltd) with pDEST20-HDAC1 baculovirus at MOI=1 for 48 h. Soluble cell lysate was incubated with pre-equilibrated Glutathione Sepharose 4B beads (Amersham) at 4°C for 2 h. The beads were washed with PBS buffer for 3 times. The GST-HDAC1 protein was eluted by elution buffer containing 50 mM Tris, pH8.0, 150mM NaCl, 1% Triton X-100 and 10mM or 20mM reduced Glutathione. The purified GST-HDAC1 protein was dialyzed with HDAC storage buffer containing 10mM Tris, pH7.5, 100mM NaCl and 3mM MgCl2. 20% Glycerol was added to purified GST-HDAC1 protein before storage at -80°C.
The assay has been carried out in 96 well format and the BIOMOL fluorescent-based HDAC activity assay has been applied. The reaction composed of assay buffer, containing 25 mM Tris pH 7.5, 137 mM NaCl, 2.7 mM KCl, 1 mM MgCl2, 1 mg/ml BSA, tested compounds, an appropriate concentration of HDAC1 enzyme, 500 uM Flur de lys generic substrate for HDAC1 enzyme and subsequently was incubated at room temperature for 2 h. Flur de lys Developer was added and the reaction was incubated for 10 min. Briefly, deacetylation of the substrate sensitizes it to the developer, which then generates a fluorophore. The fluorophore is excited with 360 nm light and the emitted light (460 nm) is detected on a fluorometric plate reader (Tecan Ultra Microplate detection system, Tecan Group Ltd.).
The analytical software, Prism 4.0 (GraphPad Software Inc) has been used to generate IC50 from a series of data. IC50 is defined as the concentration of compound required for 50% inhibition of HDAC enzyme activity.

[2] = system: Colo205 cells; assay: Cell-based proliferation assay for determination of GI50 values (CyQUANT); design: species or system Human; settings: Homo sapiens, COLO 205, compound treatment 96 h, concentration for 50% inhibition of cell growth, read-out: Gl50 (Colo205)
Method: Human cancer cell lines (e.g. Colo205) were obtained from ATCC. Colo205 cells were cultivated in RPMI 1640 containing 2 mM L-Glutamine, 5% FBS, 1.0 mM Na Pyruvate. Colo205 cells were seeded in 96-wells plate at 5000 cells per well. The plates were incubated at 37°C, 5% CO2, for 24 h. Cells were treated with compounds at various concentrations for 96 h. Cell growth was then monitored using CyQUANT® cell proliferation assay (Invitrogen Pte Ltd). Dose response curves were plotted to determine Gl50 values for the compounds using XL-fit (ID Business Solution, Emeryville, CA). Gl50 is defined as the concentration of compound required for 50% inhibition of cell growth.

| IC50 [1] | IC50 [2] | SMILES |
| --- | --- | --- |
| 90 nM | 580 nM | CCCCc1nc2cc(C=CC(=O)NO)ccn2c1CN(CCC)CCCC [Compound 10, 3-{2-Butyl-3-[(butyl-propyl-amino)-methyl]-imidazo[1,2-a]pyridin-7-yl}-N-hydroxy-acrylamide] |
| 240 nM | 2000 nM | CCCCCCN(CC)Cc1c(C(C)(C)C)nc2cc(C=CC(=O)NO)ccn12 [Compound 21, 3-{2-tert-Butyl-3-[(ethyl-hexyl-amino)-methyl]-imidazo[1,2-a]pyridin-7-yl}-N-hydroxy-acrylamide] |
| 270 nM | 730 nM | CN(CCC(C)(C)C)Cc1c(C(C)(C)C)nc2cc(C=CC(=O)NO)ccn12 [Compound 37, 3-(2-tert-Butyl-3-{[(3,3-dimethyl-butyl)-methyl-amino]-methyl}-imidazo[1,2-a]pyridin 7-yl)-N-hydroxy-acrylamide] |
| 40 nM | 150 nM | CCCCCc1nc2cc(C=CC(=O)NO)ccn2c1CN(CC)CCCC [Compound 54, 3-{3-[(Butyl-ethyl-amino)-methyl]-2-pentyl-imidazo[1,2-a]pyridin-7-yl}-N-hydroxy-acrylamide] |
| 70 nM | 480 nM | CCN(CCC(C)(C)C)Cc1c(C(C)(C)C)nc2cc(C=CC(=O)NO)ccn12 [Compound 23, 3-(2-tert-Butyl-3-{[(3,3-dimethyl-butyl)-ethyl-amino]-methyl}-imidazo[1,2-a]pyridin-7-yl)-N-hydroxy-acrylamide] |
| 60 nM | 350 nM | CCN(CCC(C)C)Cc1c(C(C)(C)C)nc2cc(C=CC(=O)NO)ccn12 [Compound 20, 3-(2-tert-Butyl-3-{[ethyl-(3-methyl-butyl)-amino]-methyl}-imidazo[1,2-a]pyridin-7-yl)-N-hydroxy-acrylamide] |
| 190 nM | 1100 nM | CCN(Cc1c(C(C)(C)C)nc2cc(C=CC(=O)NO)ccn12)CC1CCCCC1 [Compound 28, 3-{2-tert-Butyl-3-[(cyclohexylmethyl-ethyl-amino)-methyl]-imidazo[1,2-a]pyridin-7-yl}-N-hydroxy-acrylamide] |
| 570 nM | 3900 nM | CCN(Cc1c(C(C)(C)C)nc2cc(C=CC(=O)NO)ccn12)CC(C)C [Compound 17, 3-{2-tert-Butyl-3-[(ethyl-isobutyl-amino)-methyl]-imidazo[1,2-a]pyridin-7-yl}-N-hydroxy-acrylamide] |
| 330 nM | 2100 nM | CCN(Cc1c(C(C)(C)C)nc2cc(C=CC(=O)NO)ccn12)CC1CC1 [Compound 27, 3-{2-tert-Butyl-3-[(cyclopropylmethyl-ethyl-amino)-methyl]-imidazo[1,2-a]pyridin-7-yl}-N-hydroxy-acrylamide] |
| 50 nM | 600 nM | CCN(Cc1c(C)nc2cc(C=CC(=O)NO)ccn12)CC(C)(C)C [Compound 39, 3-(3-{[(2,2-Dimethyl-propyl)-ethyl-amino]-methyl}-2-methyl-imidazo[1,2-a]pyridin-7-yl)-N-hydroxy-acrylamide] |
| 60 nM | 160 nM | CCCCc1nc2cc(C=CC(=O)NO)ccn2c1CN(CC)CCCC [Compound 9, 3-{2-Butyl-3-[(butyl-ethyl-amino)-methyl]-imidazo[1,2-a]pyridin-7-yl}-N-hydroxy-acrylamide] |
| 30 nM | 130 nM | CCN(CCC(C)C)Cc1c(CCC(C)C)nc2cc(/C=C/C(=O)NO)ccn12 [Compound 67, 3-[3-{[Ethyl-(3-methyl-butyl)-amino]-methy}-2-(3-methyl-butyl)-imidazo[1,2-a]pyridin-7-yl]-N-hydroxy-acrylamide] |
| 190 nM | 970 nM | CCC(CC)CN(CC)Cc1c(C(C)(C)C)nc2cc(C=CC(=O)NO)ccn12 [Compound 24, 3-(2-tert-Butyl-3-{[ethyl-(2-ethyl-butyl)-amino]-methyl}-imidazo[1,2-a]pyridin-7-yl)-N-hydroxy-acrylamide] |
| 40 nM | 160 nM | CCCCN(CC)Cc1c(CCC(C)C)nc2cc(C=CC(=O)NO)ccn12 [Compound 66, 3-[3-[(Butyl-ethyl-amino)-methyl]-2-(3-methyl-butyl)-imidazo[1,2-a]pyridin-7-yl]-N-hydroxy-acrylamide] |
| 130 nM | 740 nM | CC(C)(C)NCc1c(C(C)(C)C)nc2cc(C=CC(=O)NO)ccn12 [Compound 3, 3-[2-tert-Butyl-3-(tert-butylamino-methyl)-imidazo[1,2-a]pyridin-7-yl]-N-hydroxy-acrylamide] |
| 80 nM | 800 nM | CCCCN(CCCC)Cc1c(C)nc2cc(/C=C/C(=O)NO)ccn12 [Compound 12, 3-(3-Dibutylaminomethyl-2-methyl-imidazo[1,2-a]pyridin-7-yl)-N-hyroxy-acrylamide] |
| 20 nM | 70 nM | CCCCCc1nc2cc(C=CC(=O)NO)ccn2c1CNC(C)(C)C [Compound 53, 3-[3-(tert-Butylamino-methyl)-2-pentyl-imidazo[1,2-a]pyridin-7-yl]-N-hydroxy-acrylamide] |
| 200 nM | 530 nM | CCCCc1nc2cc(C=CC(=O)NO)ccn2c1CN(CC)CCC(C)CC(C)(C)C (centres unmarked) [Compound 47, 3-(2-Butyl-3-{[ethyl-(3,5,5-trimethyl-hexyl)-amino]-methyl}-imidazo[1,2-a]pyridin-7-yl)-N-hydroxy-acrylamide] |
| 20 nM | 180 nM | CCCCNCc1c(CCCC)nc2cc(C=CC(=O)NO)ccn12 [Compound 4, 3-(2-Butyl-3-butylaminomethyl-imidazo[1,2-a]pyridin-7-yl)-N-hydroxy-acrylamide] |
| 540 nM | 2700 nM | CCCCCCCN(CC)Cc1c(C(C)(C)C)nc2cc(/C=C/C(=O)NO)ccn12 [Compound 25] |
| 470 nM | 2100 nM | CCCC(C)CN(CC)Cc1c(C(C)(C)C)nc2cc(C=CC(=O)NO)ccn12 (centres unmarked) [Compound 22, 3-(2-tert-Butyl-3-{[ethyl-(2-methyl-pentyl)-amino]-methyl}-imidazo[1,2-a]pyridin-7-yl)-N-hydroxy-acrylamide] |
| 10 nM | 50 nM | CCC(CC)CN(CC)Cc1c(C)nc2cc(C=CC(=O)NO)ccn12 [Compound 31, 3-(3-{[Ethyl-(2-ethyl-butyl)-amino]-methyl}-2-methyl-imidazo[1,2-a]pyridin-7-yl)-N-hydroxy-acrylamide] |
| 150 nM | 390 nM | CCCCc1nc2cc(C=CC(=O)NO)ccn2c1CN(CC)CC(CC)CC [Compound 46, 3-(2-Butyl-3-{[ethyl-(2-ethyl-butyl)-amino]-methyl}-imidazo[1,2-a]pyridin-7-yl)-N-hydroxy-acrylamide] |
| 40 nM | 130 nM | CCN(CCC(C)(C)C)Cc1c(CCC(C)C)nc2cc(C=CC(=O)NO)ccn12 [Compound 68, 3-[3-{[(3,3-Dimethyl-butyl)-ethyl-amino]-methyl}-2-(3-methyl-butyl)-imidazo[1,2-a]pyridin-7-yl]-N-hydroxy-acrylamide] |
| 30 nM | 170 nM | CCN(CCC(C)(C)C)Cc1c(CC(C)C)nc2cc(/C=C/C(=O)NO)ccn12 [Compound 61] |
| 40 nM | 150 nM | CCCCN(CC)Cc1c(CC(C)C)nc2cc(C=CC(=O)NO)ccn12 [Compound 59, 3-{3-[(Butyl-ethyl-amino)-methyl]-2-isobutyl-imidazo[1,2-a]pyridin-7-yl}-N-hydroxy-acrylamide] |
| 350 nM | 900 nM | CC(C)CCN(C)Cc1c(C(C)(C)C)nc2cc(C=CC(=O)NO)ccn12 [Compound 36, 3-(2-tert-Butyl-3-{[methyl-(3-methyl-butyl)-amino]-methyl}-imidazo[1,2-a]pyridin-7-yl)-N-hydroxy-acrylamide] |

| SMILES | IC50 [1] | IC50 [2] |
| --- | --- | --- |
| CCC(CC)NCc1c(C(C)(C)C)nc2cc(C=CC(=O)NO)ccn12 [Compound 2, 3-{2-tert-Butyl-3-[(1-ethyl-propylamino)-methyl]-imidazo[1,2-a]pyridin-7-yl}-N-hydroxy-acrylamide] | 160 nM | 1500 nM |
